Source: patent US20020111274A1, “1-alkyl-3-[1-(substituted phenyl) benzotriazol-6-yl] uracils” (BASF Aktiengesellschaft, priority 2000, published 2002)

Columns and labels:
Set-up in all cases: scale not given here
[1] = tested on: IPOHE Morningglory, Ivyleaf; assay: Preemergence herbicidal evaluation, IPOHE; type: in vivo, Ipomoea hederacea, (L.) Jacq.; conditions: preemergence
Method in brief: (§1)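 Preemergence soil spray: aqueous acetone, ~0.013–0.800 kg/ha, applied right after sowing (seed/potting-soil mix over ~1 in soil). Greenhouse, routine watering. Scored 4–5 wk post-treatment on a rating scale.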

[2] = tested on: ABUTH Velvetleaf; assay: Postemergence herbicidal evaluation, ABUTH; type: in vivo, Abutilon theophrasti, Medic.; conditions: postemergence spray, rated about two-three weeks after treatment
Method in brief: (§2)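 Plants are raised for roughly two weeks, then treated postemergence with compound dispersed in acetone/water (80/20) plus 1.0% seed oil adjuvant, at rates of about 0.006 kg to 0.400 kg per hectare. After greenhouse care, damage is scored two to three weeks later.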

[3] = tested on: CASOB Sicklepod; assay: Postemergence herbicidal evaluation, CASOB; type: in vivo, Cassia obtusifolia, L.; conditions: postemergence spray, rated about two-three weeks after treatment
Method in brief: as §2

[4] = tested on: ORYSAT Rice, Tebonnet; assay: Preemergence herbicidal evaluation, ORYSAT; type: in vivo, Oryza sativa, (L.); conditions: preemergence
Method in brief: as §1

[5] = tested on: ZEAMX Corn, Field; assay: Postemergence herbicidal evaluation, ZEAMX; type: in vivo, Zea mays, L. (Sammel-Bezeichnung); conditions: postemergence spray, rated about two-three weeks after treatment
Method in brief: as §2

[6] = tested on: GALAP Galium; assay: Postemergence herbicidal evaluation, GALAP; type: in vivo, Galium aparine; conditions: postemergence spray, rated about two-three weeks after treatment
Method in brief: as §2

[7] = tested on: ABUTH Velvetleaf; assay: Preemergence herbicidal evaluation, ABUTH; type: in vivo, Abutilon theophrasti, Medic.; conditions: preemergence
Method in brief: as §1

[8] = tested on: AMBEL Ragweed, Common; assay: Preemergence herbicidal evaluation, AMBEL; type: in vivo, Ambrosia artemisifolia, L.; conditions: preemergence
Method in brief: as §1

[9] = tested on: CHEAL Lambsquarters, Common; assay: Postemergence herbicidal evaluation, CHEAL; type: in vivo, Chenopodium album, L.; conditions: postemergence spray, rated about two-three weeks after treatment
Method in brief: as §2

[10] = tested on: CASOB Sicklepod; assay: Preemergence herbicidal evaluation, CASOB; type: in vivo, Cassia obtusifolia, L.; conditions: preemergence
Method in brief: as §1

[11] = tested on: ZEAMX Corn, Field; assay: Preemergence herbicidal evaluation, ZEAMX; type: in vivo, Zea mays, L. (Sammel-Bezeichnung); conditions: preemergence
Method in brief: as §1

[12] = tested on: ORYSAT Rice, Tebonnet; assay: Postemergence herbicidal evaluation, ORYSAT; type: in vivo, Oryza sativa, (L.); conditions: postemergence spray, rated about two-three weeks after treatment
Method in brief: as §2

[13] = tested on: CHEAL Lambsquarters, Common; assay: Preemergence herbicidal evaluation, CHEAL; type: in vivo, Chenopodium album, L.; conditions: preemergence
Method in brief: as §1

[14] = tested on: GALAP Galium; assay: Preemergence herbicidal evaluation, GALAP; type: in vivo, Galium aparine; conditions: preemergence
Method in brief: as §1

[15] = tested on: GLXMAW Soybean, Williams; assay: Preemergence herbicidal evaluation, GLXMAW; type: in vivo, Glycine max, (L.) Merr. cv Williams; conditions: preemergence
Method in brief: as §1

[16] = tested on: IPOHE Morningglory, Ivyleaf; assay: Postemergence herbicidal evaluation, IPOHE; type: in vivo, Ipomoea hederacea, (L.) Jacq.; conditions: postemergence spray, rated about two-three weeks after treatment
Method in brief: as §2

[17] = tested on: AMBEL Ragweed, Common; assay: Postemergence herbicidal evaluation, AMBEL; type: in vivo, Ambrosia artemisifolia, L.; conditions: postemergence spray, rated about two-three weeks after treatment
Method in brief: as §2

[18] = tested on: ECHOG Barnyardgrass; assay: Preemergence herbicidal evaluation, ECHOG; type: in vivo, Echinochloa crus-galli, (L.) Beau; conditions: preemergence
Method in brief: as §1

[19] = tested on: SETVI Foxtail, Green; assay: Postemergence herbicidal evaluation, SETVI; type: in vivo, Setaria viridis, (L.) Beau; conditions: postemergence spray, rated about two-three weeks after treatment
Method in brief: as §2

[20] = tested on: SETVI Foxtail, Green; assay: Preemergence herbicidal evaluation, SETVI; type: in vivo, Setaria viridis, (L.) Beau; conditions: preemergence
Method in brief: as §1

[21] = tested on: TRZAWR Wheat, Winter, cv Riband; assay: Postemergence herbicidal evaluation, TRZAWR; type: in vivo, Triticum aestivum; conditions: postemergence spray, rated about two-three weeks after treatment
Method in brief: as §2

[22] = tested on: ECHOG Barnyardgrass; assay: Postemergence herbicidal evaluation, ECHOG; type: in vivo, Echinochloa crus-galli, (L.) Beau; conditions: postemergence spray, rated about two-three weeks after treatment
Method in brief: as §2

[23] = tested on: GLXMAW Soybean, Williams; assay: Postemergence herbicidal evaluation, GLXMAW; type: in vivo, Glycine max, (L.) Merr. cv Williams; conditions: postemergence spray, rated about two-three weeks after treatment
Method in brief: as §2

[24] = tested on: TRZAWR Wheat, Winter, cv Riband; assay: Preemergence herbicidal evaluation, TRZAWR; type: in vivo, Triticum aestivum; conditions: preemergence
Method in brief: as §1

In the case of `COC(=O)C(C)Oc1ccc(C)cc1-n1nnc2cc(F)c(-n3c(=O)cc(C(F)(F)F)n(C)c3=O)cc21` (centres unmarked) [Example 41], the IPOHE herbicidal rating ([1]; rate 0.016 kg/ha) is reported as 0.0, the IPOHE herbicidal rating ([1]; rate 0.032 kg/ha) is reported as 0.0 and the IPOHE herbicidal rating ([1]; rate 0.062 kg/ha) is reported as 0.0. For the same compound, the IPOHE herbicidal rating ([1]; rate 0.125 kg/ha) was 9.0, the “Postemergence herbicidal rating ABUTH” value ([2]; 0.008 kg/ha) was 9.0 and the “Postemergence herbicidal rating ABUTH” value ([2]; 0.016 kg/ha) was 9.0. For the same compound, the “Postemergence herbicidal rating ABUTH” value ([2]; 0.032 kg/ha) was 9.0, the “Postemergence herbicidal rating ABUTH” value ([2]; 0.062 kg/ha) was 9.0 and the “Postemergence herbicidal rating CASOB” value ([3]; 0.008 kg/ha) was 1.0. For the same compound, the “Postemergence herbicidal rating CASOB” value ([3]; 0.016 kg/ha) was 3.0, the “Postemergence herbicidal rating CASOB” value ([3]; 0.032 kg/ha) was 4.0 and the “Postemergence herbicidal rating CASOB” value ([3]; 0.062 kg/ha) was 9.0. For the same compound, the ORYSAT herbicidal rating ([4]; rate 0.016 kg/ha) was 0.0, the ORYSAT herbicidal rating ([4]; rate 0.032 kg/ha) was 0.0 and the ORYSAT herbicidal rating ([4]; rate 0.062 kg/ha) was 3.0. The ORYSAT herbicidal rating ([4]; rate 0.125 kg/ha) was 4.0, the “Postemergence herbicidal rating ZEAMX” value ([5]; 0.008 kg/ha) was 6.5 and the “Postemergence herbicidal rating ZEAMX” value ([5]; 0.016 kg/ha) was 8.0. For the same compound, the “Postemergence herbicidal rating ZEAMX” value ([5]; 0.032 kg/ha) was 8.0, the “Postemergence herbicidal rating ZEAMX” value ([5]; 0.062 kg/ha) was 9.0 and the “Postemergence herbicidal rating GALAP” value ([6]; 0.008 kg/ha) was 0.0. The “Postemergence herbicidal rating GALAP” value ([6]; 0.016 kg/ha) was 1.0, the “Postemergence herbicidal rating GALAP” value ([6]; 0.032 kg/ha) was 3.0 and the “Postemergence herbicidal rating GALAP” value ([6]; 0.062 kg/ha) was 3.0. It also gave an ABUTH herbicidal rating ([7]; rate 0.016 kg/ha) of 4.0, an ABUTH herbicidal rating ([7]; rate 0.032 kg/ha) of 4.0 and an ABUTH herbicidal rating ([7]; rate 0.062 kg/ha) of 9.0. The ABUTH herbicidal rating ([7]; rate 0.125 kg/ha) was 9.0, the AMBEL herbicidal rating ([8]; rate 0.016 kg/ha) was 0.0 and the AMBEL herbicidal rating ([8]; rate 0.032 kg/ha) was 0.0. The AMBEL herbicidal rating ([8]; rate 0.062 kg/ha) was 0.0, the AMBEL herbicidal rating ([8]; rate 0.125 kg/ha) was 7.0 and the “Postemergence herbicidal rating CHEAL” value ([9]; 0.008 kg/ha) was 2.0. The “Postemergence herbicidal rating CHEAL” value ([9]; 0.016 kg/ha) was 2.0, the “Postemergence herbicidal rating CHEAL” value ([9]; 0.032 kg/ha) was 4.0 and the “Postemergence herbicidal rating CHEAL” value ([9]; 0.062 kg/ha) was 5.0. The CASOB herbicidal rating ([10]; rate 0.016 kg/ha) was 0.0, the CASOB herbicidal rating ([10]; rate 0.032 kg/ha) was 0.0 and the CASOB herbicidal rating ([10]; rate 0.062 kg/ha) was 0.0. The ZEAMX herbicidal rating ([11]; rate 0.016 kg/ha) was 0.0, the ZEAMX herbicidal rating ([11]; rate 0.032 kg/ha) was 0.0 and the ZEAMX herbicidal rating ([11]; rate 0.062 kg/ha) was 0.0. The ZEAMX herbicidal rating ([11]; rate 0.125 kg/ha) was 0.0, the “Postemergence herbicidal rating ORYSAT” value ([12]; 0.008 kg/ha) was 1.5 and the “Postemergence herbicidal rating ORYSAT” value ([12]; 0.016 kg/ha) was 2.5. For the same compound, the “Postemergence herbicidal rating ORYSAT” value ([12]; 0.032 kg/ha) was 7.0, the “Postemergence herbicidal rating ORYSAT” value ([12]; 0.062 kg/ha) was 8.0 and the CHEAL herbicidal rating ([13]; rate 0.016 kg/ha) was 4.0. The CHEAL herbicidal rating ([13]; rate 0.032 kg/ha) was 9.0, the CHEAL herbicidal rating ([13]; rate 0.062 kg/ha) was 9.0 and the CHEAL herbicidal rating ([13]; rate 0.125 kg/ha) was 9.0. It also gave a GALAP herbicidal rating ([14]; rate 0.016 kg/ha) of 0.0, a GALAP herbicidal rating ([14]; rate 0.032 kg/ha) of 0.0 and a GALAP herbicidal rating ([14]; rate 0.062 kg/ha) of 0.0. The GALAP herbicidal rating ([14]; rate 0.125 kg/ha) was 0.0, the GLXMAW herbicidal rating ([15]; rate 0.016 kg/ha) was 0.0 and the GLXMAW herbicidal rating ([15]; rate 0.032 kg/ha) was 0.0. For the same compound, the GLXMAW herbicidal rating ([15]; rate 0.062 kg/ha) was 2.0, the GLXMAW herbicidal rating ([15]; rate 0.125 kg/ha) was 2.0 and the “Postemergence herbicidal rating IPOHE” value ([16]; 0.008 kg/ha) was 9.0. The “Postemergence herbicidal rating IPOHE” value ([16]; 0.016 kg/ha) was 9.0, the “Postemergence herbicidal rating IPOHE” value ([16]; 0.032 kg/ha) was 9.0 and the “Postemergence herbicidal rating IPOHE” value ([16]; 0.062 kg/ha) was 9.0. For the same compound, the “Postemergence herbicidal rating AMBEL” value ([17]; 0.008 kg/ha) was 7.0, the “Postemergence herbicidal rating AMBEL” value ([17]; 0.016 kg/ha) was 9.0 and the “Postemergence herbicidal rating AMBEL” value ([17]; 0.032 kg/ha) was 9.0. For the same compound, the “Postemergence herbicidal rating AMBEL” value ([17]; 0.062 kg/ha) was 9.0, the ECHCG herbicidal rating ([18]; rate 0.016 kg/ha) was 0.0 and the ECHCG herbicidal rating ([18]; rate 0.032 kg/ha) was 0.0. For the same compound, the ECHCG herbicidal rating ([18]; rate 0.062 kg/ha) was 0.0, the ECHCG herbicidal rating ([18]; rate 0.125 kg/ha) was 4.0 and the “Postemergence herbicidal rating SETVI” value ([19]; 0.008 kg/ha) was 7.0. For the same compound, the “Postemergence herbicidal rating SETVI” value ([19]; 0.016 kg/ha) was 9.0, the “Postemergence herbicidal rating SETVI” value ([19]; 0.032 kg/ha) was 9.0 and the “Postemergence herbicidal rating SETVI” value ([19]; 0.062 kg/ha) was 9.0. The SETVI herbicidal rating ([20]; rate 0.016 kg/ha) was 0.0, the SETVI herbicidal rating ([20]; rate 0.032 kg/ha) was 0.0 and the SETVI herbicidal rating ([20]; rate 0.062 kg/ha) was 0.0. For the same compound, the SETVI herbicidal rating ([20]; rate 0.125 kg/ha) was 9.0, the “Postemergence herbicidal rating TRZAWR” value ([21]; 0.008 kg/ha) was 6.0 and the “Postemergence herbicidal rating TRZAWR” value ([21]; 0.016 kg/ha) was 7.0. For the same compound, the “Postemergence herbicidal rating TRZAWR” value ([21]; 0.032 kg/ha) was 8.0, the “Postemergence herbicidal rating TRZAWR” value ([21]; 0.062 kg/ha) was 8.0 and the “Postemergence herbicidal rating ECHCG” value ([22]; 0.008 kg/ha) was 6. For the same compound, the “Postemergence herbicidal rating ECHCG” value ([22]; 0.016 kg/ha) was 9.0, the “Postemergence herbicidal rating ECHCG” value ([22]; 0.032 kg/ha) was 9.0 and the “Postemergence herbicidal rating ECHCG” value ([22]; 0.062 kg/ha) was 9.0. The “Postemergence herbicidal rating GLXMAW” value ([23]; 0.008 kg/ha) was 5.5, the “Postemergence herbicidal rating GLXMAW” value ([23]; 0.016 kg/ha) was 7.5 and the “Postemergence herbicidal rating GLXMAW” value ([23]; 0.032 kg/ha) was 8.0. The “Postemergence herbicidal rating GLXMAW” value ([23]; 0.062 kg/ha) was 8.0, the TRZAWR herbicidal rating ([24]; rate 0.016 kg/ha) was 0.0 and the TRZAWR herbicidal rating ([24]; rate 0.032 kg/ha) was 0.0. It also gave a TRZAWR herbicidal rating ([24]; rate 0.062 kg/ha) of 0.0 and a TRZAWR herbicidal rating ([24]; rate 0.125 kg/ha) of 1.0.
